Experimental data: publication PMC10641831 (Journal of Medicinal Chemistry, 2023)
Values joined by “and” are separate entries in the source; they are usually repeats but may differ in a detail not shown here. Equal entries are not always repeated. Where two headings read alike, the source gives them in different places. Numbered stars: 1 amine (or outer) side, 2 acyl side, 3 side chain; on linkers, the order of the positions; unused ones are H or OH. Bridge positions count the residues as written; N and C are the ends. Square brackets hold non-standard residues; d marks the D form. Peptide text beside a SMILES is read from it. AMPB(E) = O=C(c1ccc(/N=N/c2ccc(CN[*:1])cc2)cc1)[*:2]; X2 = O=C(c1ccc(/N=N\c2ccc(CN[*:1])cc2)cc1)[*:2]

What was measured:
[1] = target: T1, hV1aR (Homo sapiens, UniProt P37288); test: IP-One accumulation assay, agonist function, HEK293 cells expressing hV1aR; format: cell-based; settings: for agonist activity at V1aR: concentrations up to 10 μM
T1 construct: expressed in transfected cells

[2] = target: T2, hV1bR (Homo sapiens, UniProt P47901); test: IP-One accumulation assay, agonist function, HEK293 cells expressing hV1bR; format: cell-based; settings: for Emax: HEK293, relative to the effect of VP, read-out: V1bR Emax ± SEM; for V1bR E/Z ratio EC50: ratio of EC50 of E- and Z-isomer; for reduced potency at V1bR compared to VP: EC50 vs VP
T2 construct: expressed in transfected cells
T2 sequence (P47901 1-424): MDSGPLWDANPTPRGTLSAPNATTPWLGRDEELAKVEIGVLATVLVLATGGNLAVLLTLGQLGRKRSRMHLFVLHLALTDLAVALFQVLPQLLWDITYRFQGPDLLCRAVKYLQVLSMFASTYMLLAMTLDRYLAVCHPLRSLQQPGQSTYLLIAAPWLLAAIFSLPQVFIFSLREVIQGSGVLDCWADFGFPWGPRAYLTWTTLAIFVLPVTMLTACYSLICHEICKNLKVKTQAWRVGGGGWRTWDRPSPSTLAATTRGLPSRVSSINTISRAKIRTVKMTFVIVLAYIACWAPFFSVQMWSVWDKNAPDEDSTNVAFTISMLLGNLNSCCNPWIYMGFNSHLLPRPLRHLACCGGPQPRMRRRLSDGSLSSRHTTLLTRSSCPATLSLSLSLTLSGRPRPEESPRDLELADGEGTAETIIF

[3] = Thermal half-life of the Z-isomer (UV/vis, 96-well plate); format: physicochemical; settings: for t1/2 (thermal half-life, Figure S50): 50 µM in HEPES buffer + 0.25% DMSO, pre-irradiated with 340 nm; for t1/2 (thermal half-life Z to E): preirradiation with 340 nm
Description: All photoprobes were investigated regarding their photophysical properties in aqueous buffer (pH 7.5), mimicking the conditions of the biological functional assays. […] Upon irradiation with 340 nm light for 10 s and monitoring via UV/vis spectroscopy, all compounds could be switched to the Z-isomer, reaching the photostationary state (PSS). Compounds 8–17 containing azobenzene could be switched back to the E-isomer by irradiation at 420 nm for 60 s. Compounds 18 and 19 containing arylazopyrazole could be reverted to the E isomer by using 528 nm light. […] The PSS, when switched to the Z-isomer, was consistently good, with a PSS of 81–95%. […] The thermal half-lives of 10 and 12 were also measured at 37 °C, representing the temperature during the biological assays. As expected, the thermal half-lives decreased, however, the ratio of E and Z isomers remained stable during the incubation period of the biological assays (1 h).
Starting materials and commercial reagents were purchased from Acros, Alfa Aesar, Fisher, Fluka, Fluorochem, Merck (Sigma-Aldrich), TCI and VWR and were used without further purification. Solvents were used in p.a. quality or dried according to common procedures if necessary. All reactions with oxygen- or moisture-sensitive reagents were carried out in glassware that was dried before use by heating under vacuum. Dry nitrogen or argon was used for an inert gas atmosphere. All NMR spectra were measured at room temperature (20 °C) using a Bruker Avance 400 (400 MHz for ^1H and 101 MHz for ^13C) or a Bruker Avance 600 (600 MHz for ^1H and 151 MHz for ^13C) NMR spectrometer. All chemical shifts are reported in δ-scale as parts per million [ppm] (multiplicity, coupling constant J, number of protons) relative to the solvent residual peaks. Coupling constants J are given in hertz [Hz]. Abbreviations used for signal multiplicity: ^1H NMR: s = singlet, d = doublet, dd = doublet of doublets, ddd = doublet of doublets of doublets, dt = doublet of triplets, t = triplet, td = triplet of doublets, q = quartet, and m = multiplet. All mass spectra were recorded on an Agilent Q-TOF 6540 UHD, Finnigan MAT SSQ 710 A, Jeol AccuTOF GCX or ThermoQuest Finnigan TSQ 7000 spectrometer. Absorption spectra were recorded on an UV/vis Agilent Cary 50 spectrometer. Thermal half-lives were measured on a 96-well plate in a Thermo Scientific Multiskan Spectrum. Analytical TLC was performed on silica gel-coated alumina plates (MN precoated TLC-sheets ALUGRAM Xtra SIL G/UV254). Visualization was done using UV light (254 or 366 nm) or staining with ninhydrin solution. Column chromatography was performed on a Biotage Isolera One automated flash purification system with a UV/vis detector. Analytical RP-HPLC was carried out on an Agilent 1220 Infinity LC System (column: P/No 00F-4251-B0, Phenomenex Luna 3 μm C18(2) 100 Å, LC column 150 mm × 2.0 mm). Purification by preparative HPLC was conducted on a preparative HPLC Agilent 1260 Infinity LC System [column: P/No 00G-4253-P0-AX, Phenomenex Luna 10 μm C18(2) 100 Å, LC column 250 mm × 21.2 mm]. The eluent systems were used as specified. After the purification process, solvents were removed by lyophilization. Switching experiments were done with a 340 nm LED (SSC VIOSYS CUD4AF1B, 500 mA, 55 mW), 420 nm LED (ILH-XC01-S410-SC211-WIR200, 800 mA, 440 mW), and 528 nm LED (OSRAM Oslon SSL 80 green, 500 mA, 34 mW). Purity of all photoprobes was >95% as determined by analytical RP-HPLC at 220 nm in DMSO.
1.3.4. Thermal Half-lives
Thermal half-lives were measured in a 96-well plate in a Thermo Scientific Multiskan® Spectrum at 25 °C (and at 37 °C for compounds 10 and 12). The solutions (50 µM in HEPES buffer + 0.25% DMSO) were pre-irradiated with 340 nm. The absorption at 335 nm was measured every 3 h. The data was analyzed using Origin 2021.
0,7 1/2 ExpDec1 Fit of Sheet1 B
Modell ExpDec1 0,35 Modell ExpDec1
0,6 Gleichung y = A 1 *e xp (-x/t1 ) + y0 Gleichung y = A 1 *e xp (-x/t1 ) + y0 […]

[4] = target: T1, hV1aR; test: IP-One accumulation assay, antagonist function (VP displacement) at hV1aR; format: cell-based; settings: coaddition of VP 1 nM; for antagonistic activity at V1aR: 10 and 100 μM; for VP displacement: at 10 μM
Experimental: This was done via coaddition and prior mixing of VP (EC60 of 1 nM) and the potential antagonists 13–19. […] IP1 accumulation was measured at concentrations of 10 and 100 μM for peptides 13–19.
Figure 5 Functional screen for antagonistic activities at V1aR. […] Data represent mean ± SEM from at least three independent experiments, each performed in triplicate.
To assess the antagonistic properties of compounds 13–19, a 4-fold concentrated dilution series in stimulation buffer was prepared for each isomer. Separately, a 4-fold concentrated VP solution was prepared (4 nM, final concentration 1 nM). A 1:1 mixture of VP solution and the diluted ligand was made to end up with a 2-fold concentration of both compounds. The following steps were conducted as described above for the agonist mode. The FRET ratios (665/615 nm) were calculated and obtained values were normalized to the basal activity value (0%) and maximal effect of VP (100%). Atosiban was used as a positive control.

[5] = Photostationary state by analytical C18-RP-HPLC; format: physicochemical; settings: for PSS (E → Z): irradiation with 340 nm, HEPES buffer; for PSS (Z → E): irradiation with 420 nm (8–17) or 528 nm (18, 19)
Experimental: All photoprobes were investigated regarding their photophysical properties in aqueous buffer (pH 7.5), mimicking the conditions of the biological functional assays.
1.3.2. Photostationary States
Photostationary states (PSS) were measured on analytical C18-RP-HPLC (flow: 0.3 mL/min, solvent A: H2O (0.05% TFA), solvent B: MeCN). To determine the PSS of the photoswitches, the samples (in 0.1 mM in HEPES buffer + 1% DMSO, pH 7.5) were irradiated first with 340 nm to get the Z-isomer. Afterwards, the sample was irradiated with 420 nm (8-17) or 528 nm (18 and 19), respectively, to get back to the E-isomer. The samples were measured at the isosbestic points.

[6] = IP-One, stable HEK293 hV1aR, μM, read-out: V1aR EC50
[7] = IP-One, stable HEK293 hV1bR, read-out: V1bR EC50 ± SEM
[8] = supplementary CSV, µM, read-out: activity E-isomer V1aR
[9] = supplementary CSV, µM, read-out: activity Z-isomer V1aR
[10] = supplementary CSV, read-out: activity E-isomer V1bR

T1 sequence (P37288 whole entry): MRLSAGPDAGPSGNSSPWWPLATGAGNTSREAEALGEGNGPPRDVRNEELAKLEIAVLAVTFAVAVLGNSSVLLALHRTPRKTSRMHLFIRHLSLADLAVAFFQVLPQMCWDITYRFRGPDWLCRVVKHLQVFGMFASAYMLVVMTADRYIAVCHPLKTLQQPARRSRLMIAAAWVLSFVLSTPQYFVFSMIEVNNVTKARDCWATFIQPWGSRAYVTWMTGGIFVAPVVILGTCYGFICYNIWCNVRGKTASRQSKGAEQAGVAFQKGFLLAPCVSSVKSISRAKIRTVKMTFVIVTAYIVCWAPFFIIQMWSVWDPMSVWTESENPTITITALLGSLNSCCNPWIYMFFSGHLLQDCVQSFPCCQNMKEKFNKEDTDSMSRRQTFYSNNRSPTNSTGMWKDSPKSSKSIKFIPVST

Molecule	EC50 [1, 6]	Emax [2]	EC50 [2, 7]	V1bR E/Z ratio EC50 [2]	t1/2 (thermal half-life, Figure S50) ([3]; 25 °C)	t1/2 (thermal half-life Z to E) ([3]; 25 °C, HEPES buffer pH 7.4)	antagonistic activity at V1aR [4]	PSS (E → Z) [5]	PSS (Z → E) [5]	also measured
N=C(N)NCCC[C@H](NC(=O)c1ccc(/N=N/c2ccc(CNC(=O)[C@@H]3CSSC[C@H](N)C(=O)N[C@@H](Cc4ccc(O)cc4)C(=O)N[C@@H](Cc4ccccc4)C(=O)N[C@@H](CCC(N)=O)C(=O)N[C@@H](CC(N)=O)C(=O)N3)cc2)cc1)C(=O)NCC(N)=O [E-14] (H-CYFQNC[AMPB(E)]RG-NH2; disulfide 1-6)	> 10 µM	48 ± 2%	4.97 ± 0.754 µM	2.1						
NC(=O)CC[C@@H]1NC(=O)[C@H](Cc2ccccc2)NC(=O)[C@H](Cc2ccc(O)cc2)NC(=O)[C@@H](N)CSSC[C@@H](C(=O)NCc2ccc(/N=N\c3ccc(C(=O)NCC(N)=O)cc3)cc2)NC(=O)[C@H](CC(N)=O)NC1=O [Z-13] (H-CYFQNC[X2]G-NH2; disulfide 1-6)	> 10 µM	52 ± 5%	7.23 ± 1.57 µM	1.6						
N=C(N)NCCC[C@H](NC(=O)c1ccc(/N=N\c2ccc(CNC(=O)[C@@H]3CSSC[C@H](N)C(=O)N[C@@H](Cc4ccc(O)cc4)C(=O)N[C@@H](Cc4ccccc4)C(=O)N[C@@H](CCC(N)=O)C(=O)N[C@@H](CC(N)=O)C(=O)N3)cc2)cc1)C(=O)NCC(N)=O [Z-14] (H-CYFQNC[X2]RG-NH2; disulfide 1-6)	> 10 µM	67 ± 2%	2.37 ± 0.607 µM	2.1						
N=C(N)NCCC[C@H](NC(=O)[C@@H]1CCCN1C(=O)[C@@H]1CSSC[C@H](N)C(=O)N[C@@H](Cc2ccc(O)cc2)C(=O)N[C@@H](Cc2ccc(/N=N/c3ccccc3)cc2)C(=O)N[C@@H](CCC(N)=O)C(=O)N[C@@H](CC(N)=O)C(=O)N1)C(=O)NCC(N)=O [compound 12, [AzbS^3]-VP]					3.0 days	3.0 days				reduced potency at V1aR compared to VP ([1]; EC50 vs VP): > 1000 fold; t1/2 (thermal half-life, Figure S50) ([3]; 37 °C): 1.4 days; t1/2 (thermal half-life Z to E) ([3]; 37 °C): 1.4 days; potency difference between the E and Z isomers at V1bR (photoswitch window) ([2]; EC50 E vs Z): 5.3 fold and 5 fold
NC(=O)CC[C@@H]1NC(=O)[C@H](Cc2ccccc2)NC(=O)[C@H](Cc2ccc(O)cc2)NC(=O)[C@@H](N)CSSC[C@@H](C(=O)NCc2ccc(/N=N/c3ccc(C(=O)NCC(N)=O)cc3)cc2)NC(=O)[C@H](CC(N)=O)NC1=O [compound 13, [AzbL^7/8]-VP] (H-CYFQNC[AMPB(E)]G-NH2; disulfide 1-6)					0.517 days	0.5 days	some level of antagonistic activity	85%	79%	agonist activity at V1aR [1]: complete loss of potency; EC50 [1, 8]: > 10 µM; EC50 [1, 9]: > 10 µM; VP displacement [4]: 76%; reduced potency at V1bR compared to VP [2]: 700–2000 fold; EC50 [2, 10]: 11.3 ± 1.83 µM; EC50 ([2]; supplementary CSV, read-out: activity Z-isomer V1bR): 7.23 ± 1.58 µM
N=C(N)NCCC[C@H](NC(=O)c1ccc(/N=N/c2ccc(CNC(=O)[C@@H]3CSSC[C@H](N)C(=O)N[C@@H](Cc4ccc(O)cc4)C(=O)N[C@@H](Cc4ccccc4)C(=O)N[C@@H](CCC(N)=O)C(=O)N[C@@H](CC(N)=O)C(=O)N3)cc2)cc1)C(=O)NCC(N)=O [compound 14, [AzbL^7]-VP] (H-CYFQNC[AMPB(E)]RG-NH2; disulfide 1-6)					1.4 days	1.4 days	some level of antagonistic activity	81%	86%	agonist activity at V1aR [1]: complete loss of potency; EC50 [1, 8]: > 10 µM; EC50 [1, 9]: > 10 µM; VP displacement [4]: 85%; reduced potency at V1bR compared to VP [2]: 700–2000 fold; EC50 [2, 10]: 4.97 ± 0.754 µM
[AzbC(o,o)^1,Dap^6]-VP [compound 15]					2.7 days	2.7 days	some antagonistic properties	88%	69%	
